The target in experiment [1] is T1, hM1 mAChR (Homo sapiens, UniProt P11229).
T1 sequence (P11229 1-460): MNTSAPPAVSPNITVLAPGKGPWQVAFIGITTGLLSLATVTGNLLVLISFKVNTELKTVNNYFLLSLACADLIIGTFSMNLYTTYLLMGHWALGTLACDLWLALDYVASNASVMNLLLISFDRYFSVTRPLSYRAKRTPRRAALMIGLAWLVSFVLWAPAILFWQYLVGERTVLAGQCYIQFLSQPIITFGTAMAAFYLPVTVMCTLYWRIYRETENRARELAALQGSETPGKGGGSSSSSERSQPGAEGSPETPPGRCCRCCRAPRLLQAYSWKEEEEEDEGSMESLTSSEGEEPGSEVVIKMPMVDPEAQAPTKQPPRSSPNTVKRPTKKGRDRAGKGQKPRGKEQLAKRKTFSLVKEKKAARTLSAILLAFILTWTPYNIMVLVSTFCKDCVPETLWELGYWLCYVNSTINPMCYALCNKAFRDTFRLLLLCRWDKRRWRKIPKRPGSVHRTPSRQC
Put plainly: Radioligand equilibrium binding assay.

Another experiment deals with T2, M1 mAChR (Mus musculus, UniProt P12657).
T2 sequence (P12657 1-460): T1 sequence (P11229 1-460) with A5V, T254S, R320K, A337G, I413V
Nature of the experiment: IP1 accumulation assay in mouse primary cortical neurons. The conditions noted are these: for log τB (logarithm of the operational efficacy estimate) / τB (antilogarithm of the operational efficacy parameter): IP1 accumulation. In kind it is cell-based.

For experiment [2], the target named is T1, hM1 mAChR. Put plainly: IP1 accumulation assay in FlpInCHO-hM1. The class given is cell-based. The conditions noted are these: for cluster of two-point profile (change in baseline versus change in pEC50): 1 and 10 μM modulator, compared with BQCA, CHO-M1 cells; for log τB (logarithm of the operational efficacy parameter of the allosteric modulator): operational model of allosterism (eq 2); for log τB (logarithm of the operational efficacy parameter of the allosteric modulator) / log αβ (logarithm of the functional cooperativity estimate between ACh and allosteric modulator): pKB fixed to binding value; for log αβ (logarithm of the functional cooperativity estimate between ACh and allosteric modulator): operational model of allosterism.

Setting [3] is: 3H-NMS 0.5 nM, allosteric ternary complex model.
[4] abbreviates: mouse cortical neurons, ACh-mediated IP1 accumulation.

Where a chain is given by its changes, count along the chain named.

Turning to `COc1ccc(Cn2cc(C(=O)O)c(=O)c3ccccc32)cc1` [BQCA, reference compound], the “log α (logarithm of the binding cooperativity between ACh and allosteric modulator)” value at hM1 mAChR [1] (setting [3]) is 1.26 ± 0.13. Besides, on M1 mAChR (setting [4]), the “log αβ (logarithm of the functional cooperativity estimate)” value was 1.73 ± 0.34, the “pKB (negative logarithm of the functional binding affinity estimate for the allosteric modulator)” value is 4.69 ± 0.40 and the “αβ (antilogarithm of the functional cooperativity parameter)” value is “(54)”.
For `Cn1cc(-c2ccc(COc3ccccc3-c3cc(=O)n(C4CCCCC4O)cn3)cc2)cn1` (centres unmarked) [Compound 2, 3-(2-Hydroxycyclohexyl)-6-(2-((4-(1-methyl-1H-pyrazol-4-yl)-benzyl)oxy)phenyl)pyrimidin-4(3H)-one], the Kb on hM1 mAChR [1] was 0.324 µM. For the same molecule, at hM1 mAChR [1] (setting [3]), the “log α (logarithm of the binding cooperativity between ACh and allosteric modulator)” value is 1.07 ± 0.19. The molecule also gave a Kb on M1 mAChR of 9.55 µM. Also, on M1 mAChR (setting [4]), the “log αβ (logarithm of the functional cooperativity estimate)” value is given as 2.12 ± 0.18 and the “αβ (antilogarithm of the functional cooperativity parameter)” value is “(132)”. Moreover, on M1 mAChR (mouse cortical neurons), the “log τB (logarithm of the operational efficacy estimate)” value is 0.47 ± 0.13 and the “τB (antilogarithm of the operational efficacy parameter)” value was “(2.95)”. Further, on hM1 mAChR [2], the “cluster of two-point profile (change in baseline versus change in pEC50)” value is reported as “cluster 2”; the “log τB (logarithm of the operational efficacy parameter of the allosteric modulator)” value turned out to be 0.45 ± 0.08; the “log αβ (logarithm of the functional cooperativity estimate between ACh and allosteric modulator)” value is recorded as 0.79 ± 0.38.
For `CN(C)C(=O)c1ccc(COc2ccccc2-c2cc(=O)n(C3CCCCC3O)cn2)cc1` (centres unmarked) [Compound 15a, 4-((2-(1-(2-Hydroxycyclohexyl)-6-oxo-1,6-dihydropyrimidin-4-yl)phenoxy)methyl)-N,N-dimethylbenzamide], the “cluster of two-point profile (change in baseline versus change in pEC50)” value at hM1 mAChR [2] was “cluster 3”.
Still for that read-out and setting: the result for `NS(=O)(=O)c1ccc(COc2ccccc2-c2cc(=O)n(C3CCCCC3O)cn2)cc1` (centres unmarked) [Compound 9k, 4-((2-(1-(2-Hydroxycyclohexyl)-6-oxo-1,6-dihydropyrimidin-4-yl)phenoxy)methyl) benzenesulfonamide] reads “cluster 2”.
Consider `Cc1ccc(COc2ccccc2-c2cc(=O)n(C3CCCCC3O)cn2)cn1` (centres unmarked) [Compound 9i, 3-(2-Hydroxycyclohexyl)-6-(2-((6-methylpyridin-3-yl)methoxy)-phenyl)pyrimidin-4(3H)-one], for which the Kb on hM1 mAChR [1] is 5.5 µM. Moreover, at hM1 mAChR [1] (setting [3]), the “log α (logarithm of the binding cooperativity between ACh and allosteric modulator)” value is 1.30 ± 0.16. This molecule also gave a Kb at M1 mAChR of 3.24 µM. On M1 mAChR (setting [4]), the “log αβ (logarithm of the functional cooperativity estimate)” value is recorded as 0.98 ± 0.11 and the “αβ (antilogarithm of the functional cooperativity parameter)” value is reported as “(9.5)”. Besides, on M1 mAChR (mouse cortical neurons), the “log τB (logarithm of the operational efficacy estimate)” value is reported as −0.52 ± 0.09 and the “τB (antilogarithm of the operational efficacy parameter)” value is recorded as “(0.30)”. Besides, on hM1 mAChR [2], the “log τB (logarithm of the operational efficacy parameter of the allosteric modulator)” value is on record as 0.37 ± 0.05; the “log αβ (logarithm of the functional cooperativity estimate between ACh and allosteric modulator)” value is on record as 1.24 ± 0.18.
In the case of `CN(C)S(=O)(=O)c1ccc(COc2ccccc2-c2cc(=O)n(C3CCCCC3O)cn2)cc1` (centres unmarked) [Compound 9l, 4-((2-(1-(2-Hydroxycyclohexyl)-6-oxo-1,6-dihydropyrimidin-4-yl)phenoxy)methyl)-N,N-dimethylbenzenesulfonamide], the “cluster of two-point profile (change in baseline versus change in pEC50)” value at hM1 mAChR [2] is on record as “cluster 3”.
Turning to `O=C(O)c1ccc(COc2ccccc2-c2cc(=O)n(C3CCCCC3O)cn2)cc1` (centres unmarked) [Compound 14a, 4-((2-(1-(2-Hydroxycyclohexyl)-6-oxo-1,6-dihydropyrimidin-4-yl)phenoxy)methyl)benzoic acid], the “cluster of two-point profile (change in baseline versus change in pEC50)” value on hM1 mAChR [2] is on record as “cluster 1”.
With `CCNC(=O)c1ccc(COc2ccccc2-c2cc(=O)n(C3CCCCC3O)cn2)cc1` (centres unmarked) [Compound 15d, N-Ethyl-4-((2-(1-(2-hydroxycyclohexyl)-6-oxo-1,6-dihydropyrimidin-4-yl)phenoxy)methyl)benzamide], the Kb at hM1 mAChR [1] is 0.269 µM. Further, the “log α (logarithm of the binding cooperativity between ACh and allosteric modulator)” value on hM1 mAChR [1] (setting [3]) is given as 1.27 ± 0.13. On hM1 mAChR [2], the “cluster of two-point profile (change in baseline versus change in pEC50)” value is reported as “cluster 4”; the “log τB (logarithm of the operational efficacy parameter of the allosteric modulator)” value was found to be 0.79 ± 0.04; the “log αβ (logarithm of the functional cooperativity estimate between ACh and allosteric modulator)” value is 1.05 ± 0.20.
`CCN(CC)C(=O)c1ccc(COc2ccccc2-c2cc(=O)n(C3CCCCC3O)cn2)cc1` (centres unmarked) [Compound 15c, N,N-Diethyl-4-((2-(1-(2-hydroxycyclohexyl)-6-oxo-1,6-dihydropyrimidin-4-yl)phenoxy)methyl)benzamide]: on hM1 mAChR [1], the Kb is 16.2 µM. Also, at hM1 mAChR [1] (setting [3]), the “log α (logarithm of the binding cooperativity between ACh and allosteric modulator)” value amounted to 0.81 ± 0.12. In addition, on hM1 mAChR [2], the “cluster of two-point profile (change in baseline versus change in pEC50)” value is “cluster 3”; the “log τB (logarithm of the operational efficacy parameter of the allosteric modulator)” value is listed as −0.09 ± 0.06; the “log αβ (logarithm of the functional cooperativity estimate between ACh and allosteric modulator)” value is recorded as 0.85 ± 0.16.
Turning to `CNC(=O)c1ccc(COc2ccccc2-c2cc(=O)n(C3CCCCC3O)cn2)cc1` (centres unmarked) [Compound 15b, 4-((2-(1-(2-Hydroxycyclohexyl)-6-oxo-1,6-dihydropyrimidin-4-yl)phenoxy)methyl)-N-methylbenzamide], on hM1 mAChR [2], the “cluster of two-point profile (change in baseline versus change in pEC50)” value was “cluster 4”.
For `NC(=O)c1ccc(COc2ccccc2-c2cc(=O)n(C3CCCCC3O)cn2)cc1` (centres unmarked) [Compound 14b, 4-((2-(1-(2-Hydroxycyclohexyl)-6-oxo-1,6-dihydropyrimidin-4-yl)phenoxy)methyl) benzamide], at hM1 mAChR [1] (setting [3]), the “log α (logarithm of the binding cooperativity between ACh and allosteric modulator)” value was 1.11 ± 0.09; the “pKB (negative logarithm of the binding affinity estimate of the allosteric modulator)” value was 6.72 ± 0.03. At hM1 mAChR [2], the “cluster of two-point profile (change in baseline versus change in pEC50)” value is reported as “cluster 2”; the “log τB (logarithm of the operational efficacy parameter of the allosteric modulator)” value is reported as 0.61 ± 0.06; the “log αβ (logarithm of the functional cooperativity estimate between ACh and allosteric modulator)” value is 1.14 ± 0.26.
`O=C(c1ccc(COc2ccccc2-c2cc(=O)n(C3CCCCC3O)cn2)cc1)N1CCCCC1` (centres unmarked) [Compound 15e, 3-(2-Hydroxycyclohexyl)-6-(2-((4-(piperidine-1-carbonyl)benzyl)-oxy)phenyl)pyrimidin-4(3H)-one]: the “cluster of two-point profile (change in baseline versus change in pEC50)” value at hM1 mAChR [2] is “cluster 3”.
Take `O=c1cc(-c2ccccc2OCc2ccc(-c3cn[nH]c3)cc2)ncn1C1CCCCC1O` (centres unmarked) [Compound 10, 6-(2-((4-(1H-Pyrazol-4-yl)benzyl)oxy)phenyl)-3-(2-hydroxycyclohexyl)pyrimidin-4(3H)-one]: the “cluster of two-point profile (change in baseline versus change in pEC50)” value on hM1 mAChR [2] is reported as “cluster 2”.
On hM1 mAChR [1], `O=c1cc(-c2ccccc2OCc2ccccc2)ncn1C1CCCCC1O` (centres unmarked) [Compound 13, 6-(2-(Benzyloxy)phenyl)-3-(2-hydroxycyclohexyl)pyrimidin-4(3H)-one] gave a Kb of 2.95 µM. Moreover, the “log α (logarithm of the binding cooperativity between ACh and allosteric modulator)” value on hM1 mAChR [1] (setting [3]) is 1.14 ± 0.13. On hM1 mAChR [2], the “cluster of two-point profile (change in baseline versus change in pEC50)” value is listed as “cluster 1”; the “log τB (logarithm of the operational efficacy parameter of the allosteric modulator)” value is 0.34 ± 0.05; the “log αβ (logarithm of the functional cooperativity estimate between ACh and allosteric modulator)” value was 1.30 ± 0.14.
